Results reported in US20260207649A1, “LSD1 INHIBITOR AND PRMT6 INHIBITOR FOR USE IN THE TREATMENT OF A DISEASE ASSOCIATED WITH GAIN-OF-FUNCTION OF ANDROGEN RECEPTOR (AR) AND/OR WITH OVEREXPRESSION OF AN AR COACTIVATOR” (FONDAZIONE TELETHON ETS(30%), priority 2022, published 2026).

Tested on: PRMT6
Experiment: Lentiviral shRNA knock-down tested in motor-neuron cell lines
Assay type: cell-based
Settings: lentiviral transduction of motor-neuron cell lines
Procedure: Transgenes to express shRNA against PRMT6 (shPRMT6 #1, SEQ ID NO: 232 and shPRMT6 #2, SEQ ID NO: 233) and the corresponding scramble were cloned into lentiviral constructs (pLKO.1-puro).
HEK293T cells were transfected by calcium phosphate with lentiviral vectors together with pCMV-dR8.91 (Delta 8.9) plasmids containing gag, pol, and rev genes and VSV-G envelope plasmid. At 16 hours post-transfection, medium was replaced with fresh medium, and 24 hours later it was collected, centrifuged at 1000×g for 10 minutes (to pellet and thus remove any cellular debris), filtered through 0.45-μm pores, and stored at −80° C. in aliquots. To quantify viruses, 10 μL of viral particles were lysed for 10 minutes at room temperature by adding an equal volume of 2× lysis buffer [0.25% Triton X-100, 50 mM KCl, 100 mM Tris-HCl pH 7.4, 40% glycerol, and 0.8 U/μL RNase inhibitor (RiboLock, Fermentas)]. Lysates were added to a single-step RT-PCR assay with 3.5 nM MS2 RNA (Roche) as template, 500 nM of each primer and hot-start Taq (Truestart Hotstart Taq, Fermentas), all in 20 mM Tris-Cl pH 8.3, 5 mM (NH4)2SO4, 20 mM KCl, 5 mM MgCl2, 0.1 mg/ml BSA, 1/20,000 SYBR Green I (Invitrogen, #S7563), and 200 µM dNTPs. […]

## shPRMT6 #1: shRNA against PRMT6 in lentiviral construct pLKO.1-puro, caccggcauucugagcaucuu (CACCGGCAUUCUGAGCAUCUU)
  knock-down efficiency: most efficient knock-down
